# Results published in patent US6737383B1, “Herbicidal oxadiazolidines” (priority 1999, dated 2004).
# Key:
# velvetleaf = test: Test B pre/postemergence velvetleaf; format: in vivo, Abutilon theophrasti; conditions: for Velvetleaf plant response rating: scale of 0 to 10 where 0 is no effect and 10 is complete control
# Summary of the method: (§1)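 Herbicidal effect was estimated by eye on a ten-point control scale after plants spent twelve to sixteen days in a greenhouse following soil or foliar treatment. Foliar sprays targeted plants at one to four leaves; all doses were formulated in a non-phytotoxic solvent with surfactant.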
# winter barley = test: Test E winter barley; format: in vivo, Hordeum vulgare; conditions: Preemergence
# rice = test: Test B flood test rice; format: in vivo, Oryza sativa
# Summary of the method: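 Read-out is a visual response score from 0 (no effect) to 10 (complete control), assigned by comparison with untreated controls. Treatment was applied at the 2-leaf stage, and plants stayed in the greenhouse for twelve to sixteen days before scoring.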
# corn = test: Test B pre/postemergence corn; format: in vivo, Zea mays; conditions: for Corn plant response rating: scale of 0 to 10 where 0 is no effect and 10 is complete control
# Summary of the method: as §1
# winter wheat [1] = test: Test E winter wheat; format: in vivo, Triticum aestivum; conditions: Preemergence
# Italian ryegrass = test: Test E Italian ryegrass; format: in vivo, Lolium multiflorum; conditions: Preemergence
# blackgrass = test: Test E blackgrass; format: in vivo, Alopecurus myosuroides; conditions: Preemergence
# crabgrass = test: Test B pre/postemergence crabgrass; format: in vivo, Digitaria sanguinalis; conditions: for Crabgrass plant response rating: scale of 0 to 10 where 0 is no effect and 10 is complete control
# Summary of the method: as §1
# winter wheat [2] = test: Test E winter wheat; format: in vivo, Triticum aestivum; conditions: Postemergence
# Summary of the method: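 Each compound, carried in a non-phytotoxic solvent blend including surfactant, was applied (postemergence: over the top of young plants at 1- to 4-leaf stage). Plants stayed in the greenhouse about 21 to 28 days before visual comparison with untreated controls.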
# wild oat = test: Test E wild oat; format: in vivo, Avena fatua; conditions: Preemergence
# green foxtail = test: Test E green foxtail; format: in vivo, Setaria viridis; conditions: Preemergence
# [3] = Postemergence, Rate 125 g/ha, scale 0 to 10, 0 is no effect, 10 is complete control
# [4] = Postemergence, Rate 250 g/ha, scale 0 to 10, 0 is no effect, 10 is complete control
# [5] = Preemergence, Rate 62 g/ha, scale 0 to 10 (0 no effect, 10 complete control)
# [6] = Rate 500 g/ha, Postemergence, scale 0 to 10, 0 no effect, 10 complete control
# [7] = Rate 250 g/ha, 0 to 100 scale, 0 no effect, 100 complete control
# [8] = Rate 500 g/ha, 0 to 100 scale (0 no effect, 100 complete control)
# [9] = Rate 1000 g/ha, 0 to 100 scale, 0 no effect, 100 complete control
# [10] = Rate 62 g/ha, flood test species, Pre-emergence, visual evaluation after twelve to sixteen days
# [11] = Rate 250 g/ha, Pre-emergence, flood-test species, scale 0 to 10, 0 is no effect, 10 is complete control
# [12] = Rate 500 g/ha, Pre-emergence, flood test species, scale 0 to 10 (0 no effect, 10 complete control)
# [13] = Rate 250 g/ha, 0 to 100 scale, 0 is no effect, 100 is complete control
# [14] = Rate 500 g/ha, 0 to 100 scale, 0 is no effect, 100 is complete control
compound,measurement,setting,value
CC1CC1n1c(=O)on(C(=O)N(c2ccc(Cl)cc2)C(C)C)c1=O (centres unmarked) [Compound 369],"Plant response rating, Velvetleaf",velvetleaf; [3],0
same,"Plant response rating, Velvetleaf",velvetleaf; [4],0
same,"Plant response rating, Velvetleaf",velvetleaf; [5],0
same,Velvetleaf plant response rating (0 to 10 scale),"velvetleaf; Preemergence, Rate 125 g/ha",0
same,Velvetleaf plant response rating,"velvetleaf; Preemergence, Rate 250 g/ha",0
same,Velvetleaf plant response rating,"velvetleaf; Preemergence, Rate 500 g/ha",6
same,Velvetleaf plant response rating,"velvetleaf; Rate 62 g/ha, Postemergence",0
same,"Plant response rating, Velvetleaf",velvetleaf; [6],3
same,"Plant response rating, Barley (winter)",winter barley; [7],70
same,"Plant response rating, Barley (winter)",winter barley; [8],50
same,"Plant response rating, Barley (winter)",winter barley; [9],60
same,"Plant response rating, Rice","rice; Postemergence (flood test), Rate 125 g/ha, scale 0 to 10, 0 is no effect, 10 is complete control",0
same,Rice plant response rating,"rice; Rate 62 g/ha, Postemergence (flood test species), scale of 0 to 10 where 0 is no effect and 10 is complete control",0
same,"Plant response rating, Rice (0 to 10 scale, 0 is no effect, 10 is complete control)",rice; [10],0
same,Rice plant response rating,"rice; Rate 125 g/ha, Pre-emergence, flood test species, scale 0 to 10 where 0 is no effect and 10 is complete control",0
same,Rice plant response rating,rice; [11],0
same,"Plant response rating, Rice","rice; Rate 500 g/ha, listed under Postemergence (flood test species), scale 0 to 10, 0 no effect, 10 complete control",0
same,Rice plant response rating,rice; [12],0
same,"Plant response rating, Rice","rice; flood test species, listed under Postemergence, Rate 250 g/ha, scale 0 to 10, 0 is no effect, 10 is complete control",0
same,"Plant response rating, Corn",corn; [3],0
same,"Plant response rating, Corn",corn; [4],0
same,"Plant response rating, Corn",corn; [5],0
same,Corn plant response rating (0 to 10 scale),"corn; Preemergence, Rate 125 g/ha",0
same,Corn plant response rating,"corn; Preemergence, Rate 250 g/ha",0
same,Corn plant response rating,"corn; Preemergence, Rate 500 g/ha",0
same,Corn plant response rating,"corn; Rate 62 g/ha, Postemergence",0
same,"Plant response rating, Corn",corn; [6],0
same,"Plant response rating, Wheat (winter)","winter wheat [1]; Rate 250 g/ha, 0 to 100 scale",60
same,"Plant response rating, Wheat (winter)",winter wheat [1]; [8],55
same,"Plant response rating, Wheat (winter)",winter wheat [1]; [9],70
same,"Plant response rating, I. Ryegrass","Italian ryegrass; Rate 250 g/ha, 0 to 100 scale",50
same,"Plant response rating, I. Ryegrass",Italian ryegrass; [8],65
same,"Plant response rating, I. Ryegrass",Italian ryegrass; [9],70
same,"Plant response rating, Blackgrass","blackgrass; Rate 250 g/ha, 0 to 100 scale",85
same,"Plant response rating, Blackgrass",blackgrass; [8],70
same,"Plant response rating, Blackgrass",blackgrass; [9],100
same,"Plant response rating, Crabgrass",crabgrass; [3],0
same,"Plant response rating, Crabgrass",crabgrass; [4],2
same,"Plant response rating, Crabgrass",crabgrass; [5],5
same,Crabgrass plant response rating (0 to 10 scale),"crabgrass; Preemergence, Rate 125 g/ha",7
same,Crabgrass plant response rating,"crabgrass; Preemergence, Rate 250 g/ha",9
same,Crabgrass plant response rating,"crabgrass; Preemergence, Rate 500 g/ha",10
same,Crabgrass plant response rating,"crabgrass; Rate 62 g/ha, Postemergence",0
same,"Plant response rating, Crabgrass",crabgrass; [6],9
same,"Plant response rating, Wheat (winter)",winter wheat [2]; [13],60
same,"Plant response rating, Wheat (winter)","winter wheat [2]; Rate 1000 g/ha, 0 to 100 scale where 0 is no effect and 100 is complete control",70
same,"Plant response rating, Wheat (winter)",winter wheat [2]; [14],70
same,"Plant response rating, Wild oat","wild oat; Rate 250 g/ha, 0 to 100 scale",65
same,"Plant response rating, Wild oat",wild oat; [8],70
same,"Plant response rating, Wild oat",wild oat; [9],75
same,"Plant response rating, Green foxtail","green foxtail; Rate 250 g/ha, 0 to 100 scale",50
same,"Plant response rating, Green foxtail",green foxtail; [8],85
same,"Plant response rating, Green foxtail",green foxtail; [9],100
CC(C)N(C(=O)n1oc(=O)n(CCC#N)c1=O)c1ccc(F)cc1 [Compound 388],"Plant response rating, Velvetleaf",velvetleaf; [3],2
same,"Plant response rating, Velvetleaf",velvetleaf; [4],2
same,Velvetleaf plant response rating,"velvetleaf; Postemergence, Rate 500 g/ha",6
same,"Plant response rating, Velvetleaf",velvetleaf; [5],0
same,Velvetleaf plant response rating (0 to 10 scale),"velvetleaf; Preemergence, Rate 125 g/ha",2
same,Velvetleaf plant response rating,"velvetleaf; Preemergence, Rate 250 g/ha",2
same,Velvetleaf plant response rating,"velvetleaf; Preemergence, Rate 500 g/ha",6
same,Velvetleaf plant response rating,"velvetleaf; Rate 62 g/ha, Postemergence",0
same,"Plant response rating, Barley (winter)","winter barley; Rate 125 g/ha, 0 to 100 scale (0 no effect, 100 complete control)",10
same,"Plant response rating, Barley (winter)",winter barley; [7],20
same,"Plant response rating, Barley (winter)",winter barley; [8],70
same,"Plant response rating, Rice (0 to 10 scale, 0 is no effect, 10 is complete control)",rice; [10],0
same,"Rice plant response rating (0 to 10 scale, 0 is no effect, 10 is complete control)","rice; Rate 125 g/ha, under heading Pre-emergence, flood test species, visual evaluation after twelve to sixteen days",0
same,Rice plant response rating,rice; [11],0
same,Rice plant response rating,rice; [12],0
same,"Plant response rating, Corn",corn; [3],0
same,"Plant response rating, Corn",corn; [4],0
same,Corn plant response rating,"corn; Postemergence, Rate 500 g/ha",0
same,"Plant response rating, Corn",corn; [5],0
same,Corn plant response rating (0 to 10 scale),"corn; Preemergence, Rate 125 g/ha",0
same,Corn plant response rating,"corn; Preemergence, Rate 500 g/ha",9
same,Corn plant response rating,"corn; Rate 62 g/ha, Postemergence",0
same,"Plant response rating, Wheat (winter)","winter wheat [1]; Rate 125 g/ha, 0 to 100 scale",50
same,"Plant response rating, Wheat (winter)","winter wheat [1]; Rate 250 g/ha, 0 to 100 scale",50
same,"Plant response rating, Wheat (winter)",winter wheat [1]; [8],60
same,"Plant response rating, I. Ryegrass","Italian ryegrass; Rate 125 g/ha, 0 to 100 scale",30
same,"Plant response rating, I. Ryegrass","Italian ryegrass; Rate 250 g/ha, 0 to 100 scale",40
same,"Plant response rating, I. Ryegrass",Italian ryegrass; [8],60
same,"Plant response rating, Blackgrass","blackgrass; Rate 125 g/ha, 0 to 100 scale",0
same,"Plant response rating, Blackgrass","blackgrass; Rate 250 g/ha, 0 to 100 scale",0
same,"Plant response rating, Blackgrass",blackgrass; [8],40
same,"Plant response rating, Crabgrass",crabgrass; [3],4
same,"Plant response rating, Crabgrass",crabgrass; [4],8
same,Crabgrass plant response rating,"crabgrass; Postemergence, Rate 500 g/ha",9
same,"Plant response rating, Crabgrass",crabgrass; [5],6
same,Crabgrass plant response rating (0 to 10 scale),"crabgrass; Preemergence, Rate 125 g/ha",8
same,Crabgrass plant response rating,"crabgrass; Preemergence, Rate 250 g/ha",10
same,Crabgrass plant response rating,"crabgrass; Preemergence, Rate 500 g/ha",10
same,Crabgrass plant response rating,"crabgrass; Rate 62 g/ha, Postemergence",4
same,"Plant response rating, Wheat (winter)","winter wheat [2]; Rate 125 g/ha, 0 to 100 scale, 0 is no effect, 100 is complete control",30
same,"Plant response rating, Wheat (winter)",winter wheat [2]; [13],30
same,"Plant response rating, Wheat (winter)",winter wheat [2]; [14],65
same,"Plant response rating, Wild oat","wild oat; Rate 125 g/ha, 0 to 100 scale",20
same,"Plant response rating, Wild oat","wild oat; Rate 250 g/ha, 0 to 100 scale",20
same,"Plant response rating, Wild oat",wild oat; [8],30
same,"Plant response rating, Green foxtail","green foxtail; Rate 125 g/ha, 0 to 100 scale",30
same,"Plant response rating, Green foxtail","green foxtail; Rate 250 g/ha, 0 to 100 scale",40
same,"Plant response rating, Green foxtail",green foxtail; [8],85
